Here are results for 10 molecules from PubChem BioAssay (NCI).

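Method: 48-hour compound exposure of cells in 96-well plates, five concentrations, linear interpolation of endpoints. GI50 is the concentration that inhibits growth by half. TGI marks complete inhibition of growth.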

Among the test systems are SK-OV-3 ovarian; MDA-MB-231 breast; SW-620 colon; IGROV1 ovarian; NCI-H522 lung; OVCAR-8 ovarian; M14 melanoma; MCF7 breast; SK-MEL-28 melanoma; HCC-2998 colon.
What all share (assay): DTP human tumour cell line panel, 48 h

The term GI50 denotes the concentration giving 50% growth inhibition. Usually TGI stands for the concentration at which net growth stops. Low readings indicate greater sensitivity of the cells, high ones lower sensitivity of the cells.

On to `Cc1ccc(Nn2c(SCC(=O)Nc3nc(-c4ccccc4)cs3)nc(C)c2C)cc1`, for which the GI50 in the experiment with SK-OV-3 ovarian is 10.6 µM; with MDA-MB-231 breast it was 3.34 µM; with SW-620 colon, 8.3 µM; with IGROV1 ovarian it was 4.59 µM; in the experiment with NCI-H522 lung, 2.97 µM; in the experiment with OVCAR-8 ovarian it was 3.79 µM. In the experiment with M14 melanoma, the GI50 was 3.7 µM. Also, the TGI in the experiment on SK-OV-3 ovarian was over 100 µM; in the experiment on MDA-MB-231 breast it was over 100 µM; in the experiment with SW-620 colon, over 100 µM; in the experiment with IGROV1 ovarian, over 100 µM; in the experiment on NCI-H522 lung it was 86.8 µM; in the experiment on OVCAR-8 ovarian it was over 100 µM. This molecule also displayed a TGI with M14 melanoma of 48.6 µM.

`O=C(/C=C/c1cc(O)ccc1O)c1ccc(Cl)cc1`: the GI50 in the experiment on MCF7 breast was 48.5 µM; in the experiment with MDA-MB-231 breast, 11.7 µM; in the experiment on SW-620 colon it was 61.9 µM; with IGROV1 ovarian, over 100 µM; with NCI-H522 lung it was 61.8 µM; in the experiment on SK-MEL-28 melanoma, 60.4 µM. In addition, the figures for the GI50 in the experiment with OVCAR-8 ovarian and in the experiment on M14 melanoma were 57.2 µM and 19.8 µM, respectively. Moreover, the TGI is over 100 µM with MCF7 breast; 43.5 µM with MDA-MB-231 breast; over 100 µM in the experiment on SW-620 colon; over 100 µM in the experiment on IGROV1 ovarian; over 100 µM in the experiment on NCI-H522 lung; over 100 µM in the experiment with SK-MEL-28 melanoma. The TGI in the experiment with OVCAR-8 ovarian is over 100 µM; in the experiment on M14 melanoma, 47.1 µM.

For `COc1ccc(-c2cncn2-c2ccc(-c3nc4cc(OC)c(OC)c(OC)c4s3)cc2)cc1N`, the GI50 in the experiment with SK-OV-3 ovarian was over 100 µM; in the experiment with MCF7 breast it was 4.07 µM; in the experiment on MDA-MB-231 breast it was over 100 µM; in the experiment on SW-620 colon it was 6.21 µM; in the experiment on IGROV1 ovarian, 4.9 µM; in the experiment with NCI-H522 lung it was 3.37 µM. The results for the GI50 in the experiment on SK-MEL-28 melanoma, in the experiment with OVCAR-8 ovarian and with M14 melanoma were 13.7 µM, 6.19 µM and 5.91 µM, respectively. Moreover, the total growth inhibition concentration (TGI) with SK-OV-3 ovarian is over 100 µM; in the experiment with MCF7 breast it was over 100 µM; in the experiment with MDA-MB-231 breast, over 100 µM; with SW-620 colon, over 100 µM; with IGROV1 ovarian it was over 100 µM; with NCI-H522 lung it was 17.5 µM. Further, the TGI in the experiment on SK-MEL-28 melanoma, in the experiment with OVCAR-8 ovarian and in the experiment with M14 melanoma was over 100 µM throughout.

`CCOc1cc(CCNC)c2c(ccc3ccc(OC)c(O)c32)c1OC`: the TGI with SK-OV-3 ovarian is 27.5 µM; in the experiment with MCF7 breast, 22.4 µM; in the experiment with MDA-MB-231 breast it was 28.5 µM; with IGROV1 ovarian, 27.7 µM; with HCC-2998 colon, 30 µM; with NCI-H522 lung, 21.7 µM. Also, the TGI in the experiment with SK-MEL-28 melanoma stood at 37.8 µM; with OVCAR-8 ovarian, 29.4 µM; in the experiment with M14 melanoma it was 28.5 µM.

For `COc1ccccc1N1CCN(CC(O)Cn2c(=O)c3c(OC)nc(C)cc3c(=O)n2-c2ccccc2)CC1` (stereo not drawn), the GI50 in the experiment with SK-OV-3 ovarian is 23.5 µM; in the experiment on MCF7 breast, over 100 µM; with MDA-MB-231 breast, 24.3 µM; in the experiment with SW-620 colon, over 100 µM; with IGROV1 ovarian, 41 µM; in the experiment on HCC-2998 colon, over 100 µM. The GI50 in the experiment on NCI-H522 lung, in the experiment with SK-MEL-28 melanoma and in the experiment on M14 melanoma was over 100 µM throughout. For the same molecule, the TGI with SK-OV-3 ovarian, with MCF7 breast, in the experiment on MDA-MB-231 breast, with SW-620 colon, with IGROV1 ovarian and in the experiment on HCC-2998 colon was over 100 µM throughout. The TGI in the experiment with NCI-H522 lung, in the experiment with SK-MEL-28 melanoma and in the experiment on M14 melanoma was over 100 µM in each case.

On to `Clc1ccc2c(NCCNc3nc(N4CCCCC4)nc4ccccc34)ccnc2c1`, for which the GI50 with SK-OV-3 ovarian was 2.58 µM; in the experiment on MCF7 breast, 0.748 µM; in the experiment with SW-620 colon, 1.34 µM; with IGROV1 ovarian, 2.54 µM; with HCC-2998 colon, 2.22 µM; in the experiment with NCI-H522 lung it was 1.75 µM. The GI50 in the experiment with SK-MEL-28 melanoma was 1.86 µM; in the experiment with OVCAR-8 ovarian it was 2.17 µM; with M14 melanoma it was 1.82 µM. Further, the TGI with SK-OV-3 ovarian came to 7.64 µM; in the experiment with MCF7 breast, 12.6 µM; in the experiment with SW-620 colon it was 3.33 µM; in the experiment on IGROV1 ovarian it was 9.86 µM; with HCC-2998 colon it was 6.26 µM; in the experiment with NCI-H522 lung, 3.85 µM. The results for the TGI in the experiment with SK-MEL-28 melanoma, with OVCAR-8 ovarian and with M14 melanoma were 3.52 µM, 5.18 µM and 3.61 µM, respectively.

In the case of `CC(NNC(=S)N1CCN(c2ccccn2)CC1)c1cccc[n+]1[O-]` (stereo not drawn), the TGI with MCF7 breast is over 100 µM; in the experiment with MDA-MB-231 breast, over 100 µM; in the experiment on SW-620 colon, over 100 µM; in the experiment with IGROV1 ovarian it was over 100 µM; with HCC-2998 colon, over 100 µM; in the experiment with NCI-H522 lung, 15.3 µM. The TGI in the experiment on SK-MEL-28 melanoma, with OVCAR-8 ovarian and in the experiment with M14 melanoma was over 100 µM each time.

As for `Cn1c(=O)c2[nH]c(CCS)nc2n(C)c1=O`, the concentration for total growth inhibition (TGI) with SK-OV-3 ovarian, in the experiment on MCF7 breast, in the experiment on MDA-MB-231 breast, in the experiment with SW-620 colon, in the experiment with IGROV1 ovarian and with NCI-H522 lung was over 100 µM in each case. The TGI in the experiment on SK-MEL-28 melanoma, with OVCAR-8 ovarian and with M14 melanoma was over 100 µM throughout.

With `COc1ccc(/C=C\c2cc(OC)c(OC)c(OC)c2)cc1N/C=C\C(=O)c1c[nH]c2ccccc12`, the GI50 with SK-OV-3 ovarian, in the experiment on MCF7 breast, in the experiment with MDA-MB-231 breast, in the experiment on SW-620 colon, in the experiment on IGROV1 ovarian and in the experiment with HCC-2998 colon was under 0.01 µM throughout. Besides, the GI50 was 1.59 µM in the experiment with SK-MEL-28 melanoma, under 0.01 µM with OVCAR-8 ovarian and under 0.01 µM with M14 melanoma. Also, the TGI in the experiment with SK-OV-3 ovarian was over 100 µM; in the experiment with MCF7 breast it was over 100 µM; with MDA-MB-231 breast it was 94.4 µM; in the experiment on SW-620 colon, over 100 µM; in the experiment on IGROV1 ovarian, over 100 µM; with HCC-2998 colon, over 100 µM. Further, the TGI was over 100 µM in the experiment on SK-MEL-28 melanoma, over 100 µM with OVCAR-8 ovarian and 47.8 µM in the experiment with M14 melanoma.

Take `C#CCn1c2c(c3ccccc3c1=O)C(=O)c1ccccc1-2`: the TGI in the experiment with SK-OV-3 ovarian is 73.1 µM; in the experiment on MCF7 breast, 27.7 µM; in the experiment with MDA-MB-231 breast, 39.1 µM; in the experiment with SW-620 colon, over 100 µM; with IGROV1 ovarian, 80.7 µM; in the experiment on NCI-H522 lung, 42.2 µM. The TGI with SK-MEL-28 melanoma is over 100 µM; with OVCAR-8 ovarian, 82.3 µM; with M14 melanoma it was over 100 µM.
